The target of test [1] is T1, Xanthine dehydrogenase/oxidase (Bos taurus, UniProt P80457). Briefly: Inhibition of bovine xanthine oxidase assessed as uric acid formation using xanthine as substrate at 100 uM after 30 mins by spectrophotometric analysis. The conditions noted are these: cattle, 0.5 h.
The target of test [2] is T1, Xanthine dehydrogenase/oxidase. The test is described as follows: Inhibition of bovine xanthine oxidase assessed as uric acid formation using xanthine as substrate after 30 mins by spectrophotometric analysis.
Test [3] deals with Rattus norvegicus. Briefly: Antihyperuricemic activity in Sprague-Dawley rat assessed as decrease of potassium oxonate-induced uric acid level in serum at 50 mg/kg, ip administered 1 hr post potassium oxonate challenge measured after 4 hrs by photometric analysis relative to control. The format is functional. On the set-up: scale not given: the % may be the effect or the level left. The conditions noted are these: route intraperitoneal.

Test [4] deals with Rattus norvegicus. The test is described as follows: Antihyperuricemic activity in Sprague-Dawley rat assessed as decrease of potassium oxonate-induced uric acid level in serum at 10 mg/kg, po administered 1 hr post potassium oxonate challenge measured after 4 hrs by photometric analysis relative to control. Further details: scale not given: the % may be the effect or the level left.

The target in test [5] is T1, Xanthine dehydrogenase/oxidase. Briefly: Inhibition of bovine xanthine oxidase assessed as uric acid formation using xanthine as substrate at 10 uM after 30 mins by spectrophotometric analysis. Conditions: cattle, 0.5 h.
The subject of test [6] is Rattus norvegicus. The test is described as follows: Antihyperuricemic activity in Sprague-Dawley rat assessed as decrease of potassium oxonate-induced uric acid level in serum at 100 mg/kg, po administered 1 hr post potassium oxonate challenge measured after 4 hrs by photometric analysis relative to control. The class given is functional. Further details: scale not given: the % may be the effect or the level left.

Broadly, the inhibition is the drop in the measured response relative to a control, in per cent. The IC50 is the concentration needed to halve the response being measured.

T1 sequence (P80457 whole entry): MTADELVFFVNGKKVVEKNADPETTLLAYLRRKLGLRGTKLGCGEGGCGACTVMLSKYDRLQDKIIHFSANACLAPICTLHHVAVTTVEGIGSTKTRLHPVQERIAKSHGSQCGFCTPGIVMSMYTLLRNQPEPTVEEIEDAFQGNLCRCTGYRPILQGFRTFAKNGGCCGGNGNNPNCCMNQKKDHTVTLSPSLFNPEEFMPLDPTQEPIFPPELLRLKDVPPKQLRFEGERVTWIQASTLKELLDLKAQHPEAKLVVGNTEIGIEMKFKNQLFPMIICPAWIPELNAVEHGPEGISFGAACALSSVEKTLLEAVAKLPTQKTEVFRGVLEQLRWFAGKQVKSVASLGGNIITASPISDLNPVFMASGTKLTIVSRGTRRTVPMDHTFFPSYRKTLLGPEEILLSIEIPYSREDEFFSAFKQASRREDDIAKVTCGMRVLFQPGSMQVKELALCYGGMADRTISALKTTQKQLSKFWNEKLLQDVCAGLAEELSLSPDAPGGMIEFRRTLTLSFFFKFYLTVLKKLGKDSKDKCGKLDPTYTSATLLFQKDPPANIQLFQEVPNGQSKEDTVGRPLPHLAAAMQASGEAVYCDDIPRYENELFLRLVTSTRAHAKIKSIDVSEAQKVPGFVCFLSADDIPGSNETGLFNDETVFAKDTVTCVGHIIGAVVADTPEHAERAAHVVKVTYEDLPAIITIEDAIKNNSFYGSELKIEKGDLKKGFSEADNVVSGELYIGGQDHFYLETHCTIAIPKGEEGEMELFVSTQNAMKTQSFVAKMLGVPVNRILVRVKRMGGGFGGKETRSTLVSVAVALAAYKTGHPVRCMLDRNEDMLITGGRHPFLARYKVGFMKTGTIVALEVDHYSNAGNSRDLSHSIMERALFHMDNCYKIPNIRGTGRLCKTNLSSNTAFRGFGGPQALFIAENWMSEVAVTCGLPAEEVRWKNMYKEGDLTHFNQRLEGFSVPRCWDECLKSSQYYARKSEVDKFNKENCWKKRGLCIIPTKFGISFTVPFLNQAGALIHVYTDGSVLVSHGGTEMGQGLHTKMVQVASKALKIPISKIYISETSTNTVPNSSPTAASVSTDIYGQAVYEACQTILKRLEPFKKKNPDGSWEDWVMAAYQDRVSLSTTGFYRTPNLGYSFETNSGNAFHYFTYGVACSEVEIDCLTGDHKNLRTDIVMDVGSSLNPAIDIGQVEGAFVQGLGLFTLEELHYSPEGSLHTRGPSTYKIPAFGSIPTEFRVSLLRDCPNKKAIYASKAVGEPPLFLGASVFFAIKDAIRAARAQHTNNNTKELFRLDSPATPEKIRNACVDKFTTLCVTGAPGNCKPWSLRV

Consider `COc1ccc(-c2cc(O)nc(O)n2)cc1`, for which, in test [1], the inhibition at 100 µM came out at 0%. In addition, the IC50 in test [2] was above 100 µM.
For the compound `COc1ccc(-c2cc(NS(C)(=O)=O)nc(N)n2)cc1`, the IC50 in test [2] was above 100 µM.
`COc1ccc(-c2cc(O)nc(N)n2)cc1OC`: the Activity in the test with Rattus norvegicus [3] is on record as 57%.
For the compound `O=C(O)c1ccc(-n2ccnc2)c([N+](=O)[O-])c1`, the inhibition at 100 µM in test [1] came out at 0%.
The same measure, in the same setting: to `COC(=O)c1cc(C)c2c(c1)S(=O)(=O)Cc1cc(NN)cc(Cl)c1O2` belongs 0%.
`Oc1ncnc2[nH]ncc12` [ALLOPURINOL]: the Activity in the test on Rattus norvegicus [4] came out at 184%. Moreover, the inhibition at 10 µM in test [5] was found to be 100%.
With `COc1ccc(-c2cc(O)nc(N)n2)cc1`, in the test with Rattus norvegicus [6], the Activity is 84%.
With `Cc1nc(-c2ccc(OCC(C)C)c(C#N)c2)sc1C(=O)O` [FEBUXOSTAT], in the test on Rattus norvegicus [4], the Activity was determined as 209%.
For `O=C1C(=CNNc2ccccc2)C(=O)N(c2ccc(Cl)cc2)C(=S)N1c1ccc(Cl)cc1`, the inhibition at 100 µM in test [1] was found to be 0%.
Turning to `COc1ccc(-c2cc(C(F)(F)F)nc(N)n2)cc1`, the IC50 in test [2] was above 100 µM.
On to `COc1cc2c(cc1OC)-c1n[nH]c(=O)n1CC2`, for which the inhibition at 100 µM in test [1] came to 0%.

The values above are taken from ChEMBL document CHEMBL2021908, “Identification of novel isocytosine derivatives as xanthine oxidase inhibitors from a set of virtual screening hits” (Bioorg Med Chem, 2012).
